≈ marks a conversion by molar mass, not a printed value. Numbered stars: 1 amine (or outer) side, 2 acyl side, 3 side chain; on linkers, the order of the positions; unused ones are H or OH. Bridge positions count the residues as written; N and C are the ends. Square brackets hold non-standard residues; d marks the D form. Peptide text beside a SMILES is read from it. * marks the point of attachment. Phe(3R-OH) = O=C([C@@H](N[*:1])[C@H](O[*:3])c1ccccc1)[*:2]; NMeTrp(4-OMe) = CN[C@@H](Cc1c[nH]c2cccc(OC)c12)C(=O)O; NMeaIle = CC[C@@H](C)[C@H](NC)C(=O)O; NMe2Val = CC(C)[C@@H](C(=O)*)N(C)C; NMeT = CN[C@H](C(=O)O)[C@@H](C)O; NMeL = CN[C@@H](CC(C)C)C(=O)O; NMeV = CN[C@H](C(=O)O)C(C)C
What follows are compounds tested on Mycobacterium tuberculosis (assay: Antimycobacterial activity against Mycobacterium tuberculosis H37Rv ATCC 27294 by Alamar blue assay).
Type: functional

**Q.** For `COc1cccc2[nH]cc(C[C@H]3C(=O)N[C@@H](C(C)C)C(=O)N[C@@H]([C@H](O)c4ccccc4)C(=O)N[C@@H](C(C)C)C(=O)O[C@H](C)[C@H](NC(=O)[C@H](C(C)C)N(C)C(=O)[C@@H](NC(=O)[C@H](C(C)C)N(C)C)C(C)C)C(=O)N(C)[C@@H]([C@@H](C)O)C(=O)N[C@@H](C(C)C)C(=O)N(C)[C@@H](CC(C)C)C(=O)N[C@@H](C(C)C)C(=O)N(C)[C@@H](C(C)C)C(=O)N3C)c12` (NMe2Val-V[NMeV]T[NMeT]V[NMeL]V[NMeV][NMeTrp(4-OMe)]V[Phe(3R-OH)]V; ester 3-C), which MIC is on record?
**A.** The MIC was 0.15 µg/mL (≈ 0.0946 µM).

**Q.** `CC[C@@H](C)[C@@H](C(=O)N[C@@H]1C(=O)N(C)[C@@H]([C@@H](C)O)C(=O)N[C@@H](C(C)C)C(=O)N(C)[C@@H](CC(C)C)C(=O)N[C@@H](C(C)C)C(=O)N(C)[C@@H](C(C)C)C(=O)N(C)[C@@H](Cc2c[nH]c3cccc(OC)c23)C(=O)N[C@@H](C(C)C)C(=O)N[C@@H](Cc2ccccc2)C(=O)N[C@@H](C(C)C)C(=O)O[C@@H]1C)N(C)C(=O)[C@@H](NC(=O)[C@H](C(C)C)N(C)C)C(C)C` was tested. Which MIC did it give?
**A.** Its MIC is 0.55 µg/mL (≈ 0.347 µM).

**Q.** For `CC[C@@H](C)[C@@H](C(=O)N[C@@H]1C(=O)N(C)[C@@H]([C@@H](C)O)C(=O)N[C@@H](C(C)C)C(=O)N(C)[C@@H](CC(C)C)C(=O)N[C@@H](C(C)C)C(=O)N(C)[C@@H](C(C)C)C(=O)N(C)[C@@H](Cc2c[nH]c3cccc(OC)c23)C(=O)N[C@@H](C(C)C)C(=O)N[C@@H]([C@H](O)c2ccccc2)C(=O)N[C@@H]([C@@H](C)CC)C(=O)O[C@@H]1C)N(C)C(=O)[C@@H](NC(=O)[C@H](C(C)C)N(C)C)C(C)C`, which MIC is on record?
**A.** Its MIC is 0.26 µg/mL (≈ 0.161 µM).

**Q.** `CC[C@@H](C)[C@@H](C(=O)N[C@@H]1C(=O)N(C)[C@@H]([C@@H](C)O)C(=O)N[C@@H](C(C)C)C(=O)N(C)[C@@H](CC(C)C)C(=O)N[C@@H](C(C)C)C(=O)N(C)[C@@H](C(C)C)C(=O)N(C)[C@@H](Cc2c[nH]c3cccc(OC)c23)C(=O)N[C@@H](C(C)C)C(=O)N[C@@H]([C@H](O)c2ccccc2)C(=O)N[C@@H](C(C)C)C(=O)O[C@@H]1C)N(C)C(=O)[C@@H](NC(=O)[C@H](C(C)C)N(C)C)C(C)C` (NMe2Val-V[NMeaIle]T[NMeT]V[NMeL]V[NMeV][NMeTrp(4-OMe)]V[Phe(3R-OH)]V; ester 3-C) was tested. Which MIC did it give?
**A.** The MIC was 0.26 µg/mL (≈ 0.162 µM).

**Q.** For `COc1cccc2[nH]cc(C[C@H]3C(=O)N[C@@H](C(C)C)C(=O)N[C@@H](Cc4ccccc4)C(=O)N[C@@H](C(C)C)C(=O)O[C@H](C)[C@H](NC(=O)[C@H](C(C)C)N(C)C(=O)[C@@H](NC(=O)[C@H](C(C)C)N(C)C)C(C)C)C(=O)N(C)[C@@H]([C@@H](C)O)C(=O)N[C@@H](C(C)C)C(=O)N(C)[C@@H](CC(C)C)C(=O)N[C@@H](C(C)C)C(=O)N(C)[C@@H](C(C)C)C(=O)N3C)c12` (NMe2Val-V[NMeV]T[NMeT]V[NMeL]V[NMeV][NMeTrp(4-OMe)]VFV; ester 3-C), which MIC is on record?
**A.** The MIC was 0.13 µg/mL (≈ 0.0828 µM).

**Q.** `CC[C@@H](C)[C@@H](C(=O)N[C@@H]1C(=O)N(C)[C@@H]([C@@H](C)O)C(=O)N[C@@H](C(C)C)C(=O)N(C)[C@@H](CC(C)C)C(=O)N[C@@H](C(C)C)C(=O)N(C)[C@@H](C(C)C)C(=O)N(C)[C@@H](Cc2c[nH]c3cccc(OC)c23)C(=O)N[C@@H]([C@@H](C)CC)C(=O)N[C@@H]([C@H](O)c2ccccc2)C(=O)N[C@@H](C(C)C)C(=O)O[C@@H]1C)N(C)C(=O)[C@@H](NC(=O)[C@H](C(C)C)N(C)C)C(C)C` was tested. Which MIC did it give?
**A.** Its MIC is 0.26 µg/mL (≈ 0.161 µM).

**Q.** How did the MIC turn out when `CC[C@@H](C)[C@@H](C(=O)N[C@@H]1C(=O)N(C)[C@@H]([C@@H](C)O)C(=O)N[C@@H]([C@@H](C)CC)C(=O)N(C)[C@@H](CC(C)C)C(=O)N[C@@H](C(C)C)C(=O)N(C)[C@@H](C(C)C)C(=O)N(C)[C@@H](Cc2c[nH]c3cccc(OC)c23)C(=O)N[C@@H](C(C)C)C(=O)N[C@@H]([C@H](O)c2ccccc2)C(=O)N[C@@H](C(C)C)C(=O)O[C@@H]1C)N(C)C(=O)[C@@H](NC(=O)[C@H](C(C)C)N(C)C)C(C)C` was run?
**A.** Its MIC is 0.26 µg/mL (≈ 0.161 µM).
